The numbers were not newly measured in patent US8278268B2, “Combination therapy comprising glucose reabsorption inhibitors and PPAR modulators” (Ortho-McNeil Pharmaceutical, Inc., priority 2001, dated 2012), which cites them from elsewhere.

Read-outs that look alike come from different tables or passages of the source.

One data set deals with SGLT in the kidney. As to conditions: cited from earlier work.
The next data set deals with T1, SGLT-2 in the kidney (Homo sapiens, UniProt P31639).
T1 sequence (P31639 1-672): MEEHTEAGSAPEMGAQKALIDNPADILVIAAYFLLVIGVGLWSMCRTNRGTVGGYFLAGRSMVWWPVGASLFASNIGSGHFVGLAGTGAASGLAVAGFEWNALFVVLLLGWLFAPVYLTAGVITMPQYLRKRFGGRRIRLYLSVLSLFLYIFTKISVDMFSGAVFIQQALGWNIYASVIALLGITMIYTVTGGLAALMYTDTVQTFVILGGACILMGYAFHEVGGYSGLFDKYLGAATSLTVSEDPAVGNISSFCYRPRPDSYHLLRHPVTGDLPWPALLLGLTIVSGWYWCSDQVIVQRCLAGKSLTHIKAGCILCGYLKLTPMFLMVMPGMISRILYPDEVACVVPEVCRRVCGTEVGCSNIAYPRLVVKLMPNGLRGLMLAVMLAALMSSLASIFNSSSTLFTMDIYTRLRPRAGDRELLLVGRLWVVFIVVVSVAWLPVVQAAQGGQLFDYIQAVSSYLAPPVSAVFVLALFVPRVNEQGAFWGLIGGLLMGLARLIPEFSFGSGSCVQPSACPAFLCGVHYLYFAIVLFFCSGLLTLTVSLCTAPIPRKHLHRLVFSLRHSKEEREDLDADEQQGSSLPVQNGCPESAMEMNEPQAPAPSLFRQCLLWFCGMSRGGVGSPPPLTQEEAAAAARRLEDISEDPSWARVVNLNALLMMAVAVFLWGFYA
As to conditions: compared with T-1095; cited from earlier work.

The conditions of data set [1]: subcutaneous daily administration; cited from earlier work.
The test system of data set [2] is Na^+-glucose co-transporters located in chorionic membrane of the intestine and the kidney. The following applies: cited from earlier work.
In another data set the test system is SGLT2 (SAAT1). The following applies: cited from earlier work; for Km: for D-glucose.
A further data set concerns the target SGLT1 (Homo sapiens, UniProt P13866). The following applies: read-out: Km in vitro; Sm. Intestine; stoichiometry 2:1; for D-glucose; cited from earlier work.

Chain of SGLT1 (P13866 whole entry, species assumed): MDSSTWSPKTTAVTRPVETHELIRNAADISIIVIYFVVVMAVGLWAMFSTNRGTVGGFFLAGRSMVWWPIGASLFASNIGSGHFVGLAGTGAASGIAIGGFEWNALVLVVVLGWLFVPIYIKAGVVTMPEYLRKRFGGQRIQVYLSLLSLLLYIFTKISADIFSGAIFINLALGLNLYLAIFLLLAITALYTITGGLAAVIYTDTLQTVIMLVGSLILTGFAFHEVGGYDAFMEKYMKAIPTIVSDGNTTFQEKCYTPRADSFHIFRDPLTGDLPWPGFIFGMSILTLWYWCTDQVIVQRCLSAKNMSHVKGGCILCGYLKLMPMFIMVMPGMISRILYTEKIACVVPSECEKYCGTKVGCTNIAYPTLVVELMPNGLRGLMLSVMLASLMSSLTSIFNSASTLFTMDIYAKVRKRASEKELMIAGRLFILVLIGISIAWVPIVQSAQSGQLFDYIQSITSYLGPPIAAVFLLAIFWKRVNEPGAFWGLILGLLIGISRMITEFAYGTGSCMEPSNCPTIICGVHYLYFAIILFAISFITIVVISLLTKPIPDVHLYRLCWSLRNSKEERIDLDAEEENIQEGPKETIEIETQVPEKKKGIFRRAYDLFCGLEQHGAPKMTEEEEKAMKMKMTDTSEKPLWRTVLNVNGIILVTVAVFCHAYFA

Turning to `Cc1cc(O)c(C(=O)CCc2ccc3occc3c2)c(OC2OC(CO)C(O)C(O)C2O)c1` (centres unmarked) [T-1095A], the “inhibition of SGLT in the kidney” value in the data set with SGLT in the kidney was “selective and potent inhibitor of SGLT in the kidney”. Further, at SGLT-2 in the kidney, the “inhibition of SGLT-2 in the kidney” value is reported as “also a better substrate for the inhibition of SGLT-2 in the kidney”.
As to `O=C(CCc1ccc(O)cc1)c1c(O)cc(O)cc1O[C@@H]1O[C@H](CO)[C@@H](O)[C@H](O)[C@H]1O` [phlorizin], the plasma glucose level result in data set [1] is “the glucose level in a plasma is controlled at a normal level for a long time”. Also, in data set [2], the “inhibition of Na+-glucose co-transporters” value is “inhibits Na^+-glucose co-transporters”.
On to `O=C[C@H](O)[C@@H](O)[C@H](O)[C@H](O)CO` [D-glucose], for which the “TmG in vitro (maximal transport rate)” value with SGLT2 (SAAT1) (Kidney (S1, S3), stoichiometry 2:1) is 7.9 pmol/min/mm; in the data set with SGLT2 (SAAT1) (Kidney (S3), stoichiometry 1:1), 83 pmol/min/mm. Further, the Michaelis constant (Km) in the data set with SGLT2 (SAAT1) (Kidney (S1, S3), stoichiometry 2:1, read-out: Km in vitro) is 390 µM; with SGLT2 (SAAT1) (Kidney (S1, S3), stoichiometry 2:1, read-out: Km in vivo) it was 300 µM; in the data set with SGLT2 (SAAT1) (Kidney (S3), stoichiometry 1:1, read-out: Km in vitro) it was 1640 µM; with SGLT2 (SAAT1) (Kidney (S3), stoichiometry 1:1, read-out: Km in vivo) it was 6000 µM; at SGLT1, 100 µM.
